The data set can be described thus: Effects of ingested theacrine versus fused theacrine as reported by human subjects. The data set is classed as in vivo. The note with it: oral ingestion. The procedure:
Typically, theacrine's effects in human subjects start after 30 minutes of ingestion and last 6-8 hours.

The structures appear in SMILES notation.

On to `Cn1c(=O)c2c(n(C)c1=O)n(C)c(=O)n2C` [theacrine, 1,3,7,9-tetramethyluric acid], for which the “start of theacrine's effects after ingestion” value turned out to be 30 min. Further, the “duration of theacrine's effects” value (same amount of theacrine in both forms) lay within 6 to 8 h. Moreover, the “"crash" felt when the theacrine level falls” value (subject-reported) is “feels a “crash.””.

(Values after patent publication US20180118747A1, “METHOD OF ISOLATING THEACRINE AND COMPOSITION COMPRISING THEACRINE” (ThermoLife International, LLC, priority 2017, published 2018).)
